Source: ChEMBL document CHEMBL5291721, “A preclinical secondary pharmacology resource illuminates target-adverse drug reaction associations of marketed drugs” (Nat Commun, 2023)

What was measured:
[1] = biological target: T1, Cholecystokinin receptor type A (Homo sapiens, UniProt P32238)
T1 sequence (P32238 whole entry): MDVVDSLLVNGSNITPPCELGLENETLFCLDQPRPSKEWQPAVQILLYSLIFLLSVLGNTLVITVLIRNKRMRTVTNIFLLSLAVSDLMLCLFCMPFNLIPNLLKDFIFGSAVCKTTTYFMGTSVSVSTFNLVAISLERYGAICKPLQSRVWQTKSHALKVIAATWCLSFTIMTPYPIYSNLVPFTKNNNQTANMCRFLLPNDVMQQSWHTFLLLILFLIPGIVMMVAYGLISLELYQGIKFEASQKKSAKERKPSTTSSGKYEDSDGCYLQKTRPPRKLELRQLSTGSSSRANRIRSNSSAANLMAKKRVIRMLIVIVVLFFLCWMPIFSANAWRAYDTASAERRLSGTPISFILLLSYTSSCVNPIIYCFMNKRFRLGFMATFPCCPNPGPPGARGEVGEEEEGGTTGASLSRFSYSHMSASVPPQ

[2] = biological target: Muscarinic acetylcholine receptor M3 (Homo sapiens, UniProt P20309)
Sequence of Muscarinic acetylcholine receptor M3 (P20309 whole entry): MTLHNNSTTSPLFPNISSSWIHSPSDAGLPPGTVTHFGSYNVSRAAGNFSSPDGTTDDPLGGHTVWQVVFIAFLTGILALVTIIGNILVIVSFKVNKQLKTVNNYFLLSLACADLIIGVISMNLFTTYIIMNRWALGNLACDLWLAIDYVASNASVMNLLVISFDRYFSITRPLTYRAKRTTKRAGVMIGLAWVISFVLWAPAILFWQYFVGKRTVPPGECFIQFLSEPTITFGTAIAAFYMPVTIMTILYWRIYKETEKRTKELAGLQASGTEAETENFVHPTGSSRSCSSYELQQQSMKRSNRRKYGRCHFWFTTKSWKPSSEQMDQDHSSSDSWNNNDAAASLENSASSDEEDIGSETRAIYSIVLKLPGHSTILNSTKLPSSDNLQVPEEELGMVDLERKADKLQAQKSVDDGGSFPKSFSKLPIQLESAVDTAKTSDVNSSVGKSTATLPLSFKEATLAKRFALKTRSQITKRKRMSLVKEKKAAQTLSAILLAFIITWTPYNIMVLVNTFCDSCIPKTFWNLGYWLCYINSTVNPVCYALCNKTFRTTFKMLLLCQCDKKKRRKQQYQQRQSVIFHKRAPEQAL

[3] = biological target: T2, Alpha-2A adrenergic receptor (Homo sapiens, UniProt P08913); assay type: functional, cell-based
T2 sequence (P08913 whole entry): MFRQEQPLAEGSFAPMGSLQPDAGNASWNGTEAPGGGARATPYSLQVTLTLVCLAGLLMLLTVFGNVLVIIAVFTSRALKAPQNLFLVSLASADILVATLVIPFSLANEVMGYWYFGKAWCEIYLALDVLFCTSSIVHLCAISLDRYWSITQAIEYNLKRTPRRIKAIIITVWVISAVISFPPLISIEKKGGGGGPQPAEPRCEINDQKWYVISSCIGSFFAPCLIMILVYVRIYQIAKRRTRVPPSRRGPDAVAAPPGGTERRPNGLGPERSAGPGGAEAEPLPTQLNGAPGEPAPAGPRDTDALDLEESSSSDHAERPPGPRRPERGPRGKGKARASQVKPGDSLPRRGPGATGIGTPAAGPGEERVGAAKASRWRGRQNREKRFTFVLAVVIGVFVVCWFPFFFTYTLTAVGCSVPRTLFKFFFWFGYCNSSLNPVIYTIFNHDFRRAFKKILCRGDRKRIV

[4] = biological target: Growth hormone secretagogue receptor type 1 (Homo sapiens, UniProt Q92847)
Sequence of Growth hormone secretagogue receptor type 1 (Q92847 whole entry): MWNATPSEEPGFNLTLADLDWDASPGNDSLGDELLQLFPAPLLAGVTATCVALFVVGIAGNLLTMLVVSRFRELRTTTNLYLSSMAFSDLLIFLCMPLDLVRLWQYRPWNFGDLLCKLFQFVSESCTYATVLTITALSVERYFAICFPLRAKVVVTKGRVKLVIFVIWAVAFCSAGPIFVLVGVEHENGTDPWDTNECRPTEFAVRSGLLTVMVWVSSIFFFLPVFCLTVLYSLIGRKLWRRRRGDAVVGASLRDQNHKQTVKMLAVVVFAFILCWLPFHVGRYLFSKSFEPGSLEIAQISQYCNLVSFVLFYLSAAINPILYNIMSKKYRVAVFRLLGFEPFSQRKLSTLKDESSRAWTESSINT

[5] = biological target: T3, Neuropeptide Y receptor type 1 (Homo sapiens, UniProt P25929)
T3 sequence (P25929 whole entry): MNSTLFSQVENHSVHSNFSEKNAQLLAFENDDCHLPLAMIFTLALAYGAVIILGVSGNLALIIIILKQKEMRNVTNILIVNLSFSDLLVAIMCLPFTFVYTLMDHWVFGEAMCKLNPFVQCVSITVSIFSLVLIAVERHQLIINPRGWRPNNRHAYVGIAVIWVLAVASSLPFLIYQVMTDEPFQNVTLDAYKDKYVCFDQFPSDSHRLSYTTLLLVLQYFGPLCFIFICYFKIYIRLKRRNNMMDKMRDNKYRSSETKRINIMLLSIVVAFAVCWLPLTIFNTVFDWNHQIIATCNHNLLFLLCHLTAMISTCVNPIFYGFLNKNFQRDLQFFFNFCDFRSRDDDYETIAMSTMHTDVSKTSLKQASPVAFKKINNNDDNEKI

[6] = biological target: 5-hydroxytryptamine receptor 2A (Homo sapiens, UniProt P28223); assay type: functional, cell-based
Sequence of 5-hydroxytryptamine receptor 2A (P28223 whole entry): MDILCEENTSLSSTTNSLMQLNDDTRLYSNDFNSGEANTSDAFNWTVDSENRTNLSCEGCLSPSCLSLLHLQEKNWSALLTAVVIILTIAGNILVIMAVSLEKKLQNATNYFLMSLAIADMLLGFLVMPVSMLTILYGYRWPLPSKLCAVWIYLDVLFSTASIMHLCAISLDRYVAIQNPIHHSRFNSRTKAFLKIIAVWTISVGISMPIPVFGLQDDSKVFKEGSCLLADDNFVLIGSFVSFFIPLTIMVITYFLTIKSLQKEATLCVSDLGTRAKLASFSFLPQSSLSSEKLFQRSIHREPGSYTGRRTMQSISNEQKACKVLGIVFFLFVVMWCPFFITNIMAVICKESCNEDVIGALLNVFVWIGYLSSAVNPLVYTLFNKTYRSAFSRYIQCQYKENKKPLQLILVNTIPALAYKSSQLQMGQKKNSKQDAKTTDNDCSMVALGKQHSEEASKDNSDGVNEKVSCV

[7] = biological target: T4, Muscarinic acetylcholine receptor M2 (Homo sapiens, UniProt P08172); assay type: functional, cell-based
T4 sequence (P08172 whole entry): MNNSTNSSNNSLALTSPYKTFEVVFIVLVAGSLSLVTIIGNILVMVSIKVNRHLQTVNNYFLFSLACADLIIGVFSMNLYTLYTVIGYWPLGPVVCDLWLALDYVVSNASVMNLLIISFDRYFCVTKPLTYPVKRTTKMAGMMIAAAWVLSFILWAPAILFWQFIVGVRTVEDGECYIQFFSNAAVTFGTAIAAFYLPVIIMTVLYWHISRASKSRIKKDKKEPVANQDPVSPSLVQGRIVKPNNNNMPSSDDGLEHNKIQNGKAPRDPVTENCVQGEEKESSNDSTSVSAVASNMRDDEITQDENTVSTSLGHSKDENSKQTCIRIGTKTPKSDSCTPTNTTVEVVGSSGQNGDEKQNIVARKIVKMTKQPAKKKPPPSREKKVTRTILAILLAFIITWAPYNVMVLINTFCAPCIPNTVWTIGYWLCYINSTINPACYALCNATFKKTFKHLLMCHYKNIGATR

[8] = biological target: T4, Muscarinic acetylcholine receptor M2; assay type: functional, cell-based; remark: listed apart in the source
Thromboxane A2 receptor = biological target: T5, Thromboxane A2 receptor (Homo sapiens, UniProt P21731)
T5 sequence (P21731 whole entry): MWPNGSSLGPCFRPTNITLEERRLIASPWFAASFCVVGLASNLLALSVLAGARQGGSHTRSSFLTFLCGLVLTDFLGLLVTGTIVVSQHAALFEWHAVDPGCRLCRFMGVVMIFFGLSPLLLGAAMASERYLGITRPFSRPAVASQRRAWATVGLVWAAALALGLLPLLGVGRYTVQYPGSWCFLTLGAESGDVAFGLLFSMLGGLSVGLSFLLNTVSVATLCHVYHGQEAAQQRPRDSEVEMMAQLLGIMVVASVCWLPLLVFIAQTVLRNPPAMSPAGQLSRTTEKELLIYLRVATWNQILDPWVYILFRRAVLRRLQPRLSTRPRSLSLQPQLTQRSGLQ

Adenosine receptor A2a = Adenosine receptor A2a (Homo sapiens, UniProt P29274)
Sequence of Adenosine receptor A2a (P29274 whole entry): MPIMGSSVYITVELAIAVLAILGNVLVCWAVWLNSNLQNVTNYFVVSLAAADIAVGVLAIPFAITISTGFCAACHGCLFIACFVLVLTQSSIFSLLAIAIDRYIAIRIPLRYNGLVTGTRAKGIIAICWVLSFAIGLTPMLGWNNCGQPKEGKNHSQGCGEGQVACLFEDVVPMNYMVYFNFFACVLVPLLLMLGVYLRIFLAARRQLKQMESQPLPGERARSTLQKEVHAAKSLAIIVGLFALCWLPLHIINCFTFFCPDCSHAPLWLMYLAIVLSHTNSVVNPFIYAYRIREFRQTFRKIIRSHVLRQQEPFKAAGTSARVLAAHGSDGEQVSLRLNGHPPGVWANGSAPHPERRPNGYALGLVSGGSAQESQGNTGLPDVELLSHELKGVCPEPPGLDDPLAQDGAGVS

D(1A) dopamine receptor = D(1A) dopamine receptor (Homo sapiens, UniProt P21728); assay type: functional, cell-based
Sequence of D(1A) dopamine receptor (P21728 whole entry): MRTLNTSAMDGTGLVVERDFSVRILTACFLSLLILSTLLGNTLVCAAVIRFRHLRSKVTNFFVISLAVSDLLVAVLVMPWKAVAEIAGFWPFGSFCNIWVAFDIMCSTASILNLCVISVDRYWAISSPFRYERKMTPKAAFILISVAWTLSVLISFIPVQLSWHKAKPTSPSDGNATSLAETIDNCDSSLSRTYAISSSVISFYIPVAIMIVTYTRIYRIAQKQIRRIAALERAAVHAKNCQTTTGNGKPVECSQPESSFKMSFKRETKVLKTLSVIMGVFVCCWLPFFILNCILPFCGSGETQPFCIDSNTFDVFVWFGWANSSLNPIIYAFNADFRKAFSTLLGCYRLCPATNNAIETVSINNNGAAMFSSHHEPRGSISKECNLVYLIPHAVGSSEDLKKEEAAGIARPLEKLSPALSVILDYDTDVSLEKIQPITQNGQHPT

[9] = biological target: T6, Alpha-2B adrenergic receptor (Homo sapiens, UniProt P18089)
T6 sequence (P18089 whole entry): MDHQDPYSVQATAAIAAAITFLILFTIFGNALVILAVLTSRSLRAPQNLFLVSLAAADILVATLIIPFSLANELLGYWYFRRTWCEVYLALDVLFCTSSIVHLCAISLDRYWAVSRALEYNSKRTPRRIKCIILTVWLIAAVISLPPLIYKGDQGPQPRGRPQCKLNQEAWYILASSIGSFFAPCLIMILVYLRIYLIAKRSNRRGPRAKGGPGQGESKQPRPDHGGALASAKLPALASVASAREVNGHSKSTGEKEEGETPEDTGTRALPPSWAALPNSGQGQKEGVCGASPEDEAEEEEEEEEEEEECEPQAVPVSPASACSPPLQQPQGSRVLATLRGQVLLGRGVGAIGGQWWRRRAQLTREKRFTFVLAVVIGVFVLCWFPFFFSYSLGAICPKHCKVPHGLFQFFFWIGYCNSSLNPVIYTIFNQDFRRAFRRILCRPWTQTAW
Further: assay procedure not described here.

| SMILES | AC50 [1] [µM] | AC50 [2] [µM] | AC50 [3] [µM] | AC50 [4] [µM] | AC50 [5] [µM] | AC50 [6] [µM] | AC50 [7] [µM] | AC50 [8] [µM] | AC50 (Thromboxane A2 receptor) [µM] | AC50 (Adenosine receptor A2a) [µM] | AC50 (D(1A) dopamine receptor) [µM] | AC50 [9] [µM] |
| --- | --- | --- | --- | --- | --- | --- | --- | --- | --- | --- | --- | --- |
| CN1CCN(C(=O)OC2c3nccnc3C(=O)N2c2ccc(Cl)cn2)CC1 (stereo not given) [ZOPICLONE] | > 30 | > 30 | > 10 | > 30 | > 30 | > 30 | > 10 | > 10 | > 30 | > 30 | > 10 | > 30 |
| O=C1CN=C(c2ccccc2)c2cc(Cl)ccc2N1CC(F)(F)F [HALAZEPAM] | > 30 | > 30 | > 30 | > 30 | > 30 | > 30 | > 30 | > 30 |  | > 30 | > 30 | > 30 |
| [H]/N=C(/N)c1ccc(NCc2nc3cc(C(=O)N(CCC(=O)O)c4ccccn4)ccc3n2C)cc1 [DABIGATRAN] | > 30 | > 30 | > 30 | > 30 | > 30 |  | > 30 | > 30 |  | > 30 | > 30 | > 30 |
| CCCCCCCCOc1ccccc1C(=O)Nc1ccc(C(=O)OCC[N+](C)(CC)CC)cc1 [OTILONIUM BROMIDE] | > 30 | 1.7 | > 10 | 7.6 | 10 | 3.9 | 16 |  | > 30 | 5.3 | > 30 | 2.9 |
| CN[C@@H](C)[C@H](O)c1ccccc1 [EPHEDRINE] | > 30 | > 10 | > 10 | > 30 | > 30 |  | 17 | > 10 | > 30 | > 30 | > 10 | > 10 |
| CCCCCCCCCCCC[N+](C)(C)CCOc1ccccc1 [DOMIPHEN] | > 30 | 8.4 | 13 | 5.7 | 4.4 | 0.94 | 14 |  | > 30 | > 30 | > 30 | 3.8 |
| Cc1c(C(=O)Nc2ccc(N3C[C@@H](C)O[C@@H](C)C3)nc2)cccc1-c1ccc(OC(F)(F)F)cc1 [SONIDEGIB] | > 30 |  |  | > 30 | > 30 |  |  |  | > 30 | > 30 |  | > 10 |
| COc1ccc2cccc(CCNC(C)=O)c2c1 [AGOMELATINE] | > 30 | > 10 | > 30 | > 30 | > 30 |  | > 30 | > 30 | > 30 | > 30 | > 10 | > 10 |
| CN1CCc2cccc3c2[C@H]1Cc1ccc(O)c(O)c1-3 [APOMORPHINE] | > 30 | > 30 | > 10 | > 30 | > 20 | 1.79 | > 10 | > 10 | > 30 | > 30 |  |  |
| C[C@H]1C[C@@H]2[C@H]([C@@H](O)C[C@@]3(C)[C@H]2CC[C@]3(O)C(=O)COC(=O)CCC(=O)O)[C@@]2(C)C=CC(=O)C=C12 [METHYLPREDNISOLONE HEMISUCCINATE] | > 30 | > 30 | > 30 | > 30 | > 30 | > 30 | > 30 | > 30 |  | > 30 | > 30 | > 30 |
| O=C1NCCN1CCN1CCC(c2cn(-c3ccc(F)cc3)c3ccc(Cl)cc23)CC1 [SERTINDOLE] | > 30 | 22 |  | 28 | > 30 |  | > 30 | > 10 | > 30 | > 30 | > 30 |  |
| CCCCCOC(=O)Nc1nc(=O)n([C@@H]2O[C@H](C)[C@@H](O)[C@H]2O)cc1F [CAPECITABINE] | > 30 | > 30 | > 30 | > 30 | > 30 | > 30 | > 30 | > 30 |  | > 30 | > 30 | > 30 |
| O=C(O)CCCc1ccccc1 [PHENYLBUTANOIC ACID] | > 10 | > 30 | > 30 | > 10 | > 10 | > 30 | > 30 | > 30 | > 10 | > 10 |  | > 30 |
| CCCCCCC(C)(C)c1cc(O)c2c(c1)OC(C)(C)C1CCC(=O)CC21 (stereo not given) [NABILONE] | > 30 | > 30 | > 30 | > 30 | > 30 | > 30 | > 30 | > 30 |  | > 30 | > 30 | > 30 |
| CN1C(=O)COc2c(C(=O)NC3CN4CCC3CC4)cc(Cl)cc21 (stereo not given) [AZASETRON] | > 30 |  | > 10 | > 30 | > 30 |  | > 30 | > 30 | > 30 | > 30 | > 30 |  |
